pIC50: −log10 of the molar value.
System: 282377-053-R-J1-PDC complex spheroid viability
Experiment: Anticancer human tumor 282377-053-R-J1-PDC patient-derived colon adenocarcinoma cell line growth inhibition [RAS]
Conditions: for pIC50: curve of first compound; for viability, T/C: stronger effect = lower value; active = viability on the fitted dose curve at most 10% of control; inactive = the rest
Excerpt: RAS pathway inhibitors in Combinations in Complex Spheroids
A high-throughput screen of multi-cell type tumor spheroids was designed to identify active combinations of RAS pathway inhibitors and targeted small molecules. Complex spheroids include a stromal component modeled by human endothelial cells (HUVEC) and fibroblasts modeled by human mesenchymal stem cells (MSCs). The concentration ranges selected for each drug and investigational agent were based upon clinically achievable concentrations if the clinical Cmax of the agent was known.
Compounds. The drugs and investigational agents: abemaciclib (NSC768073), cobimetinib (NSC768068), divarasib (GDC6063, NSC841802), docetaxel (NSC628503), GDC-1971 (RLY-1971, NSC841576), gemcitabine (NSC613327), inavolisib (NSC800729), ipatasertib (NSC767898), KB-0742 (NSC834161), MRTX-1133 (NSC836407), osimertinib (NSC779217), RMC-4630 (NSC839698), RMC-6236 (NSC851965), RMC-6291 (NSC852671), Ro-3306 (NSC812927), sapanisertib (NSC764658), SN-38 (NSC673596), staurosporine (NSC755774), SY5609 (NSC837396), and tovorafenib (DAY101, NSC766906), were obtained from the National Cancer Institute (NCI) Developmental Therapeutics Program Chemical Repository. The FDA-approved anticancer drug set is available from the NCI Developmental Therapeutics Program. […] The stock solutions were prepared in dimethyl sulfoxide (DMSO, Sigma-Aldrich, St. Louis, MO, cat. D2650) at 800-fold the tested concentration and stored at -70 degrees C prior to their use. All drugs and investigational agents were tested over a range starting from a high concentration at or near the clinical Cmax and decreasing in half-log increments. If the clinical Cmax for an agent had not been determined, the highest concentration tested was 10 microM.
Cell Culture. All cells were maintained in an incubator at 37 degrees C and 5% CO2 with 95% humidity. The PDC lines were cultured according to standard operating procedures established by the NCI PDMR. All PDCs were thawed and cultured in Matrigel-coated flasks prepared with a working solution of 1X Ham's F-12 nutrient mix, without supplementation (Invitrogen, Waltham, MA, cat. 11765054), 100 U/mL penicillin-streptomycin (Invitrogen, cat. 15140122), and 2.5% Matrigel (Corning Inc., Corning, NY, cat. 354248) for the first three passages. The 362531-283-R-J2-PDC and 782815-120-R-J1-PDC lines were cultured in 6C/Colon 1B media, which includes advanced DMEM/F-12 (Thermo Fisher Scientific, cat. 12634028), 10 mM HEPES (Thermo Fisher Scientific, cat. 15630080), 1X GlutaMAX supplement (Thermo Fisher Scientific, cat. 35050061), 0.1 mg/mL primocin (InvivoGen, San Diego, CA, cat. ant-pm-2), 10% defined fetal bovine serum, heat inactivated (HyClone Laboratories Inc., Logan, UT, cat. SH30070.03HI), 50% L-WRN conditioned media (ATCC, cat. CRL-3276), 1.25 mM N-Acetyl-L-cysteine (Sigma-Aldrich, cat. A9165), 10 mM nicotinamide (Sigma-Aldrich, cat. N0636), 1X B-27 supplement (Thermo Fisher Scientific, cat. 17504044), 1X N-2 supplement (Thermo Fisher Scientific, cat. 17502048), 50 ng/mL human EGF (Thermo Fisher Scientific, cat. PHG0311), and 10 microM Y-27632 dihydrochloride (Tocris Bioscience, cat. 1254). The K12877-001-R-J1-PDC line was cultured in 6I media, which includes all 6C/Colon 1B media plus 10 ng/mL human FGF-10 (PeproTech, cat. 100-26), 1 ng/mL human FGF-2 (PeproTech, cat. 100-18B), 1 µM prostaglandin E2 (Tocris Bioscience, cat. 2296), […] hydrocortisone (Sigma-Aldrich, cat. H4001), and […] bovine insulin (Sigma-Aldrich, cat. I6634). The K86415-001-R-J1-PDC line was cultured in 6D media, which includes all 6C/Colon 1B media components minus the L-WRN conditioned media. The 485176-168-R4-J1-PDC was cultured in PANC media, which includes all 6C/Colon 1B media plus 100 ng/mL human FGF-10 (PeproTech, cat. 100-26), 500 nM SB-431542 (Selleckchem, cat. S1067), and 10 nM gastrin (Tocris Bioscience, cat. 3006). […]

[1] = second compound 0.0316 µM, first compound 0.0316 µM
[2] = second compound 0.0316 µM, first compound 0.1 µM
[3] = second compound 0.0316 µM, first compound 0.316 µM
[4] = second compound 0.0316 µM, first compound 1 µM
[5] = second compound 0.0316 µM, first compound 3.16 µM
[6] = second compound 0.0316 µM, first compound 10 µM
[7] = second compound 0.1 µM, first compound 0.0316 µM
[8] = second compound 0.1 µM, first compound 0.1 µM
[9] = second compound 0.1 µM, first compound 0.316 µM
[10] = second compound 0.1 µM, first compound 1 µM
[11] = second compound 0.1 µM, first compound 3.16 µM
[12] = second compound 0.1 µM, first compound 10 µM
[13] = second compound 0.316 µM, first compound 0.0316 µM
[14] = second compound 0.316 µM, first compound 0.1 µM
[15] = second compound 0.316 µM, first compound 0.316 µM
[16] = second compound 0.316 µM, first compound 1 µM
[17] = second compound 0.316 µM, first compound 3.16 µM
[18] = second compound 0.316 µM, first compound 10 µM
[19] = second compound 1 µM, first compound 0.0316 µM
[20] = second compound 1 µM, first compound 0.1 µM
[21] = second compound 1 µM, first compound 0.316 µM
[22] = second compound 1 µM, first compound 1 µM
[23] = second compound 1 µM, first compound 3.16 µM
[24] = second compound 1 µM, first compound 10 µM
[25] = second compound 3.16 µM, first compound 0.0316 µM
[26] = second compound 3.16 µM, first compound 0.1 µM
[27] = second compound 3.16 µM, first compound 0.316 µM
[28] = second compound 3.16 µM, first compound 1 µM
[29] = second compound 3.16 µM, first compound 3.16 µM
[30] = second compound 3.16 µM, first compound 10 µM
[31] = second compound 10 µM, first compound 0.0316 µM
[32] = second compound 10 µM, first compound 0.1 µM
[33] = second compound 10 µM, first compound 0.316 µM
[34] = second compound 10 µM, first compound 1 µM
[35] = second compound 10 µM, first compound 3.16 µM
[36] = second compound 10 µM, first compound 10 µM
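Also: spheroids exposed to agents for seven days before readout.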
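For viability, T/C in this document: luminescence viability as percent of DMSO vehicle control wells.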

CC1(O)CCCC1n1c(=O)c(C(F)F)cc2cnc(NC3CCN(S(C)(=O)=O)CC3)nc21 (stereo unspecified) + C#Cc1c(F)ccc2cc(O)cc(-c3ncc4c(N5CC6CCC(C5)N6)nc(OCC56CCCN5CC(F)C6)nc4c3F)c12
5.21: pIC50 (second compound 0.316 µM) | pIC50 (second compound 1 µM) | pIC50 (second compound 3.16 µM) | pIC50 (second compound 10 µM)
inactive: viability, T/C [1] 102% | viability, T/C [2] 115% | viability, T/C [3] 135% | viability, T/C [4] 121% | viability, T/C [5] 121% | viability, T/C [7] 109% | viability, T/C [8] 117% | viability, T/C [9] 128% | viability, T/C [10] 125% | viability, T/C [11] 111% | viability, T/C [13] 117% | viability, T/C [14] 126% | viability, T/C [15] 120% | viability, T/C [16] 108% | viability, T/C [17] 112% | viability, T/C [19] 98.9% | viability, T/C [20] 111% | viability, T/C [21] 123% | viability, T/C [22] 110% | viability, T/C [23] 122% | viability, T/C [25] 94.4% | viability, T/C [26] 127% | viability, T/C [27] 130% | viability, T/C [28] 102% | viability, T/C [29] 113% | viability, T/C [31] 99% | viability, T/C [32] 117% | viability, T/C [33] 116% | viability, T/C [34] 121% | viability, T/C [35] 132%
5.22: pIC50 (second compound 0.1 µM)
5.20: pIC50 (second compound 0.0316 µM)
active: viability, T/C [6] 2.6% | viability, T/C [12] 3.18% | viability, T/C [18] 3.11% | viability, T/C [24] 3.32% | viability, T/C [30] 4.31% | viability, T/C [36] 2.84%

CCN1CCN(Cc2ccc(Nc3ncc(F)c(-c4cc(F)c5nc(C)n(C(C)C)c5c4)n3)nc2)CC1 + C#Cc1c(F)ccc2cc(O)cc(-c3ncc4c(N5CC6CCC(C5)N6)nc(OCC56CCCN5CC(F)C6)nc4c3F)c12
inactive: viability, T/C (second compound 0.0316 µM, first compound 0.00316 µM) 101% | viability, T/C (second compound 0.0316 µM, first compound 0.01 µM) 101% | viability, T/C [1] 112% | viability, T/C [2] 119% | viability, T/C [3] 127% | viability, T/C [4] 127% | viability, T/C (second compound 0.1 µM, first compound 0.00316 µM) 125% | viability, T/C (second compound 0.1 µM, first compound 0.01 µM) 95.5% | viability, T/C [7] 107% | viability, T/C [8] 106% | viability, T/C [9] 135% | viability, T/C [10] 126% | viability, T/C (second compound 0.316 µM, first compound 0.00316 µM) 105% | viability, T/C (second compound 0.316 µM, first compound 0.01 µM) 108% | viability, T/C [13] 109% | viability, T/C [14] 121% | viability, T/C [15] 117% | viability, T/C [16] 129% | viability, T/C (second compound 1 µM, first compound 0.00316 µM) 97.3% | viability, T/C (second compound 1 µM, first compound 0.01 µM) 100% | viability, T/C [19] 96.7% | viability, T/C [20] 103% | viability, T/C [21] 119% | viability, T/C [22] 132% | viability, T/C (second compound 3.16 µM, first compound 0.00316 µM) 107% | viability, T/C (second compound 3.16 µM, first compound 0.01 µM) 112% | viability, T/C [25] 103% | viability, T/C [26] 118% | viability, T/C [27] 134% | viability, T/C [28] 131% | viability, T/C (second compound 10 µM, first compound 0.00316 µM) 90.2% | viability, T/C (second compound 10 µM, first compound 0.01 µM) 90.1% | viability, T/C [31] 101% | viability, T/C [32] 111% | viability, T/C [33] 104% | viability, T/C [34] 120%
< 6.00: pIC50 (second compound 0.0316 µM) | pIC50 (second compound 0.1 µM) | pIC50 (second compound 0.316 µM) | pIC50 (second compound 1 µM) | pIC50 (second compound 3.16 µM) | pIC50 (second compound 10 µM)

C[C@@H](NC(=O)c1ncnc(N)c1Cl)c1ncc(C(=O)Nc2cc(C(F)(F)F)c(Cl)cn2)s1 + C#Cc1c(F)ccc2cc(O)cc(-c3ncc4c(N5CC6CCC(C5)N6)nc(OCC56CCCN5CC(F)C6)nc4c3F)c12
inactive: viability, T/C [1] 121% | viability, T/C [2] 99.5% | viability, T/C [3] 89.2% | viability, T/C [4] 86.5% | viability, T/C [5] 87.1% | viability, T/C [6] 78.5% | viability, T/C [7] 103% | viability, T/C [8] 111% | viability, T/C [9] 88.7% | viability, T/C [10] 76.7% | viability, T/C [11] 79.6% | viability, T/C [12] 93.5% | viability, T/C [13] 105% | viability, T/C [14] 112% | viability, T/C [15] 84.8% | viability, T/C [16] 91.2% | viability, T/C [17] 75.7% | viability, T/C [18] 71.7% | viability, T/C [19] 104% | viability, T/C [20] 86.6% | viability, T/C [21] 94.1% | viability, T/C [22] 67% | viability, T/C [23] 90.4% | viability, T/C [24] 77% | viability, T/C [25] 79.9% | viability, T/C [26] 101% | viability, T/C [27] 104% | viability, T/C [28] 77.5% | viability, T/C [29] 80.9% | viability, T/C [30] 80.3% | viability, T/C [31] 91.3% | viability, T/C [32] 102% | viability, T/C [33] 91.9% | viability, T/C [34] 85% | viability, T/C [35] 90.8% | viability, T/C [36] 86.9%
< 5.00: pIC50 (second compound 0.0316 µM) | pIC50 (second compound 0.1 µM) | pIC50 (second compound 0.316 µM) | pIC50 (second compound 1 µM) | pIC50 (second compound 3.16 µM) | pIC50 (second compound 10 µM)

— PubChem BioAssay AID2060905 (Molecular Pharmacology Branch, DTP, NCI, 2025)
